Measured values as given in EP0037667A2, “Immobilized lactase, its preparation and use” (priority 1980, dated 1981).
Read-outs that look alike come from different tables or passages of the source.

Columns and labels:
[1] = target: lactase derived from Escherichia coli (β-galactosidase; enzyme number 3. 2. 1. 23) (Escherichia coli, UniProt P00722); settings: E. coli lactase, cited from earlier work
[2] = target: T1, lactase originated from Aspergillus oryzae (extracellular enzyme, unimmobilized) (Aspergillus oryzae, UniProt Q2UCU3); experiment: Km and Ki of free (unimmobilized) Aspergillus oryzae lactase; type: biochemical; settings: for Ki: substrate, lactose, free enzyme, read-out: Inhibition constant Ki by galactose
T1 construct: obtained from a strain belonging to Aspergillus oryzae as extracellular enzyme; host or cells: Aspergillus oryzae strain (natural producer, secreted)
Method: The lactase used in the present invention is obtained from a strain belonging to Aspergillus oryzae as extracellular enzyme, and has the following characteristics:
Km = 0.10 ± 0.05 mole/ℓ (pH 4.5, 30°C, substrate; lactose), and Km = 0.3 ± 0.15 mole/ℓ (pH 6.65, 30°C, substrate; lactose).
Ki = (6 ± 3) x 10^-3 mole/ℓ (pH 4.5, 30°C, substrate; lactose), and Ki = (4 ± 3) x 10^-3 mole/ℓ (pH 6.65, 30°C, substrate; lactose).
In the present specification, 1 ILU is defined as the amount of lactase which produces […] per minute of glucose at pH 4.5 at 30°C when a 13.3 w/v % of lactose solution is used as the substrate. The quantity of glucose thus prepared is defined by using glucose oxidase-peroxidase- dye system. When the measurement of the activity (unit) is carried out at a different pH or temperature, the pH or the temperature will specifically be given in each case.

[3] = target: T2, immobilized lactase: Aspergillus oryzae lactase covalently attached through glutaraldehyde on macroporous phenol-formaldehyde based anion-exchange resin (Aspergillus oryzae, UniProt Q2UCU3); experiment: Km and Ki of the immobilized lactase, general properties; type: biochemical; settings: pH 6.65, 30°C, substrate; lactose; immobilized enzyme; read-out: Inhibition constant by galactose Ki
T2 construct: obtained from a strain belonging to Aspergillus oryzae as extracellular enzyme; host or cells: Aspergillus oryzae strain (natural producer, secreted)
Method: The enzymatical properties of the present immobilized lactase are given below.
Km = 0.2 ± 0.1 mole/ℓ (both pH 4.5, 30°C, substrate; lactose, and pH 6.65, 30°C, substrate; lactose)
Ki = (8 ± 5) x […] mole/ℓ (pH 4.5, 30°C, substrate; lactose) and Ki = (3 ± 2) x 10^-2 mole/ℓ (pH 6.65, 30°C, substrate; lactose).
Both values of Km and Ki for the immobilized enzyme tend to increase with increase in the concentration of the glutaraldehyde solution used for the treatment, and moreover, in the measurement thereof, it is considerably difficult to obtain the results with good reproducibility. Therefore, the above value given for Km and Ki should be understood taking this respect into consideration."

T1 sequence (Q2UCU3 19-1005): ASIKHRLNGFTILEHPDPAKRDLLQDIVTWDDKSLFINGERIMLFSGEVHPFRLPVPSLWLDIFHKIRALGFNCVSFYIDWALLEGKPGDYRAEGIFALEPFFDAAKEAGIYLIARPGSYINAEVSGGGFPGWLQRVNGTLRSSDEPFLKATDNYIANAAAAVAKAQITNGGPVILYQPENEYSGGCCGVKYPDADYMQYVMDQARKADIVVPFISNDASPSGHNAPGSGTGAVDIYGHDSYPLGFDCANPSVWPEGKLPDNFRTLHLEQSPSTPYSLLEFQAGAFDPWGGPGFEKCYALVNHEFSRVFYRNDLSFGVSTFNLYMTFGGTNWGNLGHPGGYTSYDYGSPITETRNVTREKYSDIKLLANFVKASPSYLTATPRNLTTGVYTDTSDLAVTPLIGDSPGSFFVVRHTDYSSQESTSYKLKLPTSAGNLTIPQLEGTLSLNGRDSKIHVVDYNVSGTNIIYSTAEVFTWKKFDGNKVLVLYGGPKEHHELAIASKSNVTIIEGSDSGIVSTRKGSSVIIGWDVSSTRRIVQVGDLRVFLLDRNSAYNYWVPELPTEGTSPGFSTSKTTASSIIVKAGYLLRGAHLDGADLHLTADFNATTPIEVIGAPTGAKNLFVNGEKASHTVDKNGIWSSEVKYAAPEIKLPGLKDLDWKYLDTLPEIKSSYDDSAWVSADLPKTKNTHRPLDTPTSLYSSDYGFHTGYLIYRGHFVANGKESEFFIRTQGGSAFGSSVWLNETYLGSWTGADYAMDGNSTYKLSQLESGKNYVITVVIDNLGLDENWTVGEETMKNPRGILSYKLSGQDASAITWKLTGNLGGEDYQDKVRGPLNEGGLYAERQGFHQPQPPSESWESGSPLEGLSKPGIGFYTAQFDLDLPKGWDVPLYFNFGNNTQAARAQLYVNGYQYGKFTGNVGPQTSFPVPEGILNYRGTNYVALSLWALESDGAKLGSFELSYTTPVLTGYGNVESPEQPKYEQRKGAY
lactase derived from Escherichia coli (β-galactosidase; enzyme number 3. 2. 1. 23), sequence (P00722 2-1024): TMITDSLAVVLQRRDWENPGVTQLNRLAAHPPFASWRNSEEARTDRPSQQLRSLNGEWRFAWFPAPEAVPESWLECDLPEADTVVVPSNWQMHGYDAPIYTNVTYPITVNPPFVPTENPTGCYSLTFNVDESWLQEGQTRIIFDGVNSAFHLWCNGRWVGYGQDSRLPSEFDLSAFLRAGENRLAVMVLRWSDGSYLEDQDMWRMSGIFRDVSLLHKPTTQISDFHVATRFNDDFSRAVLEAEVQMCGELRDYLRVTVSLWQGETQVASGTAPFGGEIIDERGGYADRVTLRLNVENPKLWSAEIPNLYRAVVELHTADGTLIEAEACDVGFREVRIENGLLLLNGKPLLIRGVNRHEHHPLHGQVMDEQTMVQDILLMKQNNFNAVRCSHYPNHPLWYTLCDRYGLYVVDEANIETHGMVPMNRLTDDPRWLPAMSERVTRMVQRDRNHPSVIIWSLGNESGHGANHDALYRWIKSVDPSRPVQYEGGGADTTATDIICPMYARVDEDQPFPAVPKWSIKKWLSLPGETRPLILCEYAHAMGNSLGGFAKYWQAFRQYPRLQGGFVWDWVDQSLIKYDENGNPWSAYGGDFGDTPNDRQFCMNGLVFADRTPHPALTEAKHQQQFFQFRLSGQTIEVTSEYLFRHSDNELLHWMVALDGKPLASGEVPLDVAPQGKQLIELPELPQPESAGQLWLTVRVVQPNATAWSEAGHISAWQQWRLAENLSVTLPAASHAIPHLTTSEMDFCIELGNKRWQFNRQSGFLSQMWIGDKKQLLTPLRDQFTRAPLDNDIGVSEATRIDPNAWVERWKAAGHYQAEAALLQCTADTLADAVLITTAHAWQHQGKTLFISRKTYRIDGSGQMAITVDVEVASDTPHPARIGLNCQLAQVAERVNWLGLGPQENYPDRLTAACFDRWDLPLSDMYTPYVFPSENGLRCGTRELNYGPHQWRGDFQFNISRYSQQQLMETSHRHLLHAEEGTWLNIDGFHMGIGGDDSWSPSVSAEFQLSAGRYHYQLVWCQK
T2 sequence (Q2UCU3 19-1005): as the sequence (Q2UCU3 19-1005) above

O=[N+]([O-])c1ccccc1O[C@@H]1O[C@H](CO)[C@H](O)[C@H](O)[C@H]1O [ONPG, ortho-nitrophenyl-β-D-galactopyranoside, reference compound]
Km ([1]; read-out: Michaelis constant Km (substrate; ONPG)): 0.95 mM

OC[C@H]1OC(O)[C@H](O)[C@@H](O)[C@H]1O (stereo partly drawn) [galactose]
Ki ([2]; pH 4.5, 30°C): 6 mM | Ki ([2]; pH 6.65, 30°C): 4 mM | Ki [3]: 30 mM

OC[C@H]1O[C@@H](O[C@H]2[C@H](O)[C@@H](O)C(O)O[C@@H]2CO)[C@H](O)[C@@H](O)[C@H]1O (stereo partly drawn) [lactose]
Km ([2]; pH 4.5, 30°C, dry lactase powder used in Example 3 (Shinnihon Kagaku Kogyo, 80 ILU/mg)): 100 mM | Km ([1]; read-out: Michaelis constant Km (substrate; lactose)): 7.5 mM
